Calls of active or inactive are those of the source. The calls are words filed in the database; no cut-off is given here.
Columns and labels:
[1] = biological target: RAC-alpha serine/threonine-protein kinase (Homo sapiens) (UniProt P31749); settings: GISTT1, 0.1 uM
Description: Inhibition of AKT autophosphorylation at T308 residue in human GISTT1 cells harboring c-KIT 560 to 578 deletion mutant at 0.1 uM measured after 2 hrs by Western blot analysis

[2] = biological target: RAC-alpha serine/threonine-protein kinase (Homo sapiens) (UniProt P31749); settings: GISTT1, 0.1 uM; remark: listed apart in the source
Description: Inhibition of AKT autophosphorylation at T308 residue in human GISTT1 cells harboring c-KIT 560 to 578 deletion/T670I mutant at 0.1 uM measured after 2 hrs by Western blot analysis

[3] = tested on: Mast/stem cell growth factor receptor Kit (Homo sapiens), P10721 [UNDEFINED MUTATION]; settings: GISTT1, 0.1 uM
Sequence of Mast/stem cell growth factor receptor Kit (Homo sapiens), P10721 [UNDEFINED MUTATION] (P10721 whole entry, looked up, stated change not applied): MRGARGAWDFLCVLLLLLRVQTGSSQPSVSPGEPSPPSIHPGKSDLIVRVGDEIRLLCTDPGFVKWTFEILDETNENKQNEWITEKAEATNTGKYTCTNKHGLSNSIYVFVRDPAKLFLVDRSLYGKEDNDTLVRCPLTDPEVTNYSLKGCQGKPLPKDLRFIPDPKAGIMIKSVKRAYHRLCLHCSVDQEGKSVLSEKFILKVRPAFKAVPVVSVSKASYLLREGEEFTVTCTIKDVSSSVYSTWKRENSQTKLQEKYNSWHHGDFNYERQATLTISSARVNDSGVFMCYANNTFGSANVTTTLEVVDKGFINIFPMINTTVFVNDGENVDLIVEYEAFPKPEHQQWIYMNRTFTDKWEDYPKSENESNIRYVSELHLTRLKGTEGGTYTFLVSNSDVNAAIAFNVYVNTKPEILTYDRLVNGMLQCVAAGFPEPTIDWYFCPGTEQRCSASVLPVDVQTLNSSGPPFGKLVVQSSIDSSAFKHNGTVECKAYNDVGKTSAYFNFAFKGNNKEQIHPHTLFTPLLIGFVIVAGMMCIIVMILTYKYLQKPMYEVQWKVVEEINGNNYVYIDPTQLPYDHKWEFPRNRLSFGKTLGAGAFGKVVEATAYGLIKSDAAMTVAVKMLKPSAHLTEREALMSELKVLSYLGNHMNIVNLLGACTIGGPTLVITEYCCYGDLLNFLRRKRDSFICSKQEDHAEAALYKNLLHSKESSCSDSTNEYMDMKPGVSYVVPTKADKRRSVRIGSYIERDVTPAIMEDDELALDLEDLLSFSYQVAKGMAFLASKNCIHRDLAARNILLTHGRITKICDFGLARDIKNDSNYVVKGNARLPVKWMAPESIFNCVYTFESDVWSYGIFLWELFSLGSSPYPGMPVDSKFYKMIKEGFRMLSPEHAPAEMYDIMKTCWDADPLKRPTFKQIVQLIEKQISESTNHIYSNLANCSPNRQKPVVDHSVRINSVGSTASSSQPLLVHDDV
Description: Inhibition of c-KIT 560 to 578 deletion mutant in human GISTT1 cells assessed as reduction in c-KIT autophosphorylation at Y719 residue at 0.1 uM measured after 2 hrs by Western blot analysis

[4] = tested on: Mast/stem cell growth factor receptor Kit (Homo sapiens), P10721 [UNDEFINED MUTATION]; settings: GISTT1, 0.1 uM; remark: listed apart in the source
Description: Inhibition of c-KIT 560 to 578 deletion mutant in human GISTT1 cells assessed as reduction in c-KIT autophosphorylation at Y823 residue at 0.1 uM measured after 2 hrs by Western blot analysis

[5] = tested on: Mast/stem cell growth factor receptor Kit (Homo sapiens), P10721 [UNDEFINED MUTATION]; settings: GISTT1, 0.1 uM; remark: listed apart in the source
Description: Inhibition of c-KIT 560 to 578 deletion/T670I mutant in human GISTT1 cells assessed as reduction in c-KIT autophosphorylation at Y703 residue at 0.1 uM measured after 2 hrs by Western blot analysis

[6] = tested on: Mast/stem cell growth factor receptor Kit (Homo sapiens), P10721 [UNDEFINED MUTATION]; settings: 0.1 uM
Description: Inhibition of c-KIT 560 to 578 deletion/T670I mutant in human GIST5R cells assessed as reduction in c-KIT autophosphorylation at Y703 residue at 0.1 uM measured after 2 hrs by Western blot analysis

[7] = tested on: Mast/stem cell growth factor receptor Kit (Homo sapiens), P10721 [UNDEFINED MUTATION]; settings: GISTT1, 0.1 uM; remark: listed apart in the source
Description: Inhibition of c-KIT 560 to 578 deletion mutant in human GISTT1 cells assessed as reduction in pS6 phosphorylation at S235 residue at 0.1 uM measured after 2 hrs by Western blot analysis

[8] = tested on: Mast/stem cell growth factor receptor Kit (Homo sapiens), P10721 [UNDEFINED MUTATION]; settings: GISTT1, 0.1 uM; remark: listed apart in the source
Description: Inhibition of c-KIT 560 to 578 deletion mutant in human GISTT1 cells assessed as reduction in pS6 phosphorylation at S236 residue at 0.1 uM measured after 2 hrs by Western blot analysis

[9] = tested on: Mast/stem cell growth factor receptor Kit (Homo sapiens), P10721 [UNDEFINED MUTATION]; settings: 0.1 uM; remark: listed apart in the source
Description: Inhibition of c-KIT 560 to 578 deletion/T670I mutant in human GIST5R assessed as reduction in AKT phosphorylation at T308 residue at 0.1 uM measured after 2 hrs by Western blot analysis

[10] = tested on: Mast/stem cell growth factor receptor Kit (Homo sapiens), P10721 [UNDEFINED MUTATION]; settings: 0.1 uM; remark: listed apart in the source
Description: Inhibition of c-KIT 560 to 578 deletion/T670I mutant in human GIST5R assessed as reduction in ERK phosphorylation at T202 residue at 0.1 uM measured after 2 hrs by Western blot analysis

Mus musculus [11] = test: Antitumor activity against mouse BAF3(transformed) cells harboring c-KIT T670I mutant implanted in BALB/c nu mouse assessed as tumor growth inhibition administered via oral gavage for 11 days; type: functional
[12] = biological target: Macrophage colony-stimulating factor 1 receptor (Homo sapiens, UniProt P07333); test: Binding affinity to wild-type human partial length CSF1R (I564 to S939 residues) expressed in bacterial expression system assessed as residual binding level at 1 uM by Kinomescan method relative to control
Sequence of Macrophage colony-stimulating factor 1 receptor (P07333 whole entry, the tested form may be a part): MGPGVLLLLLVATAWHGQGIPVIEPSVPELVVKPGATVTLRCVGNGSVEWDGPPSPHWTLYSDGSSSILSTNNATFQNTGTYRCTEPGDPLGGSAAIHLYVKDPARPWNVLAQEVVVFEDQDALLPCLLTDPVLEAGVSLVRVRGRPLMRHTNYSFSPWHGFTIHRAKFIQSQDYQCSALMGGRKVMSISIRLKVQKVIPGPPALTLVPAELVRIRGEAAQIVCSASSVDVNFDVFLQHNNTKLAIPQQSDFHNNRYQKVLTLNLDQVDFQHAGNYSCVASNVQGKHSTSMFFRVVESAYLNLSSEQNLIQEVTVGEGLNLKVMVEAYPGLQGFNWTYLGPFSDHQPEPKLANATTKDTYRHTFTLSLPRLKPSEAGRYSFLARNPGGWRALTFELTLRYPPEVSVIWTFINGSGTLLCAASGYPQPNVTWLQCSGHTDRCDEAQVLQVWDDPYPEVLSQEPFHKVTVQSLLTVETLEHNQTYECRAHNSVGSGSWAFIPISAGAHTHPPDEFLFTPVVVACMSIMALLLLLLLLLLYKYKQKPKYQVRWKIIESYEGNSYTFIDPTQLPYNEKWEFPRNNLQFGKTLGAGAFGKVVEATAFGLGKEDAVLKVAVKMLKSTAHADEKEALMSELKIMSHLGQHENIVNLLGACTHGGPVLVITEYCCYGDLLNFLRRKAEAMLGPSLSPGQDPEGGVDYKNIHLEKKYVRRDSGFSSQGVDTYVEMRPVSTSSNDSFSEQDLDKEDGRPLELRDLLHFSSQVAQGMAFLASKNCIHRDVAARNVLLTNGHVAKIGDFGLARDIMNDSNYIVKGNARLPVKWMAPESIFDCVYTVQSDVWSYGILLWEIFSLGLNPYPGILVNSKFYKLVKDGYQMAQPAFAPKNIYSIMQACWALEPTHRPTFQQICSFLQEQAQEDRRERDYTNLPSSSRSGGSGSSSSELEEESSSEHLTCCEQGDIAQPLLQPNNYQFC

[13] = biological target: Epithelial discoidin domain-containing receptor 1 (Homo sapiens, UniProt Q08345); test: Binding affinity to wild-type human partial length DDR1 (R565 to V876 residues) expressed in bacterial expression system assessed as residual binding level at 1 uM by Kinomescan method relative to control
[14] = biological target: T1, Platelet-derived growth factor receptor beta (Homo sapiens, UniProt P09619); test: Binding affinity to wild-type human partial length PDGFRB (V582 to Y1009 residues) expressed in bacterial expression system assessed as residual binding level at 1 uM by Kinomescan method relative to control
T1 sequence (P09619 whole entry, the tested form may be a part): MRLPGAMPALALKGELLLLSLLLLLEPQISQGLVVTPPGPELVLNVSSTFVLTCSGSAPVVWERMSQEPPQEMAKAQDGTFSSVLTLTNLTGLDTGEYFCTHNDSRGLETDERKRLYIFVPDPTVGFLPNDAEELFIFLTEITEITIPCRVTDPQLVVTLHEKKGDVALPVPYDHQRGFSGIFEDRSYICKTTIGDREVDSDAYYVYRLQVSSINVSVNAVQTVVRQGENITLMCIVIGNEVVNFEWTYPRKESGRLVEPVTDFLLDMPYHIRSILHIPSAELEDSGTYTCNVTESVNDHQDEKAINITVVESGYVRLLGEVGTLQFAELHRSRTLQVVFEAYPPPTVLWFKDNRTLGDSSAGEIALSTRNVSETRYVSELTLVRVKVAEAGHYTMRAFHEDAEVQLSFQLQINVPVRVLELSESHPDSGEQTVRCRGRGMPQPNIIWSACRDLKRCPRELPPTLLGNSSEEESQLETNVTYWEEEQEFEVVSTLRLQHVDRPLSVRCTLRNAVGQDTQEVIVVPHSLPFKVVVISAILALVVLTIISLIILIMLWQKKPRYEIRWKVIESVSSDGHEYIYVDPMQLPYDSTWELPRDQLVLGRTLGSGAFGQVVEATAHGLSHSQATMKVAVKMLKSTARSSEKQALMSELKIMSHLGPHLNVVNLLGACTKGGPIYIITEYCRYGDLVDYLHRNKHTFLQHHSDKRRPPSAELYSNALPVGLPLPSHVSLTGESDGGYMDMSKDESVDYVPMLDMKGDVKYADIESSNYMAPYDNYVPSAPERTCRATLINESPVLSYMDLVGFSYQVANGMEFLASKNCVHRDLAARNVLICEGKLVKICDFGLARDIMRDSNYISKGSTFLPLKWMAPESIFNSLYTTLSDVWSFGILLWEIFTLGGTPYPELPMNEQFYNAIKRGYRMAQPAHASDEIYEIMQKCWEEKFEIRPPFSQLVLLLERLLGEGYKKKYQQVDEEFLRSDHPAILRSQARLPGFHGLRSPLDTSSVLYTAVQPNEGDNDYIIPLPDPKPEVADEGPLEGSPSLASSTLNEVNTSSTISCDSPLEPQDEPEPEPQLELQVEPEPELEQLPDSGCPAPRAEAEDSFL

[15] = biological target: T2, Proto-oncogene tyrosine-protein kinase receptor Ret (Homo sapiens, UniProt P07949); test: Binding affinity to wild-type human partial length RET (E713 to D1014 residues) expressed in bacterial expression system assessed as residual binding level at 1 uM by Kinomescan method relative to control
T2 sequence (P07949 whole entry, the tested form may be a part): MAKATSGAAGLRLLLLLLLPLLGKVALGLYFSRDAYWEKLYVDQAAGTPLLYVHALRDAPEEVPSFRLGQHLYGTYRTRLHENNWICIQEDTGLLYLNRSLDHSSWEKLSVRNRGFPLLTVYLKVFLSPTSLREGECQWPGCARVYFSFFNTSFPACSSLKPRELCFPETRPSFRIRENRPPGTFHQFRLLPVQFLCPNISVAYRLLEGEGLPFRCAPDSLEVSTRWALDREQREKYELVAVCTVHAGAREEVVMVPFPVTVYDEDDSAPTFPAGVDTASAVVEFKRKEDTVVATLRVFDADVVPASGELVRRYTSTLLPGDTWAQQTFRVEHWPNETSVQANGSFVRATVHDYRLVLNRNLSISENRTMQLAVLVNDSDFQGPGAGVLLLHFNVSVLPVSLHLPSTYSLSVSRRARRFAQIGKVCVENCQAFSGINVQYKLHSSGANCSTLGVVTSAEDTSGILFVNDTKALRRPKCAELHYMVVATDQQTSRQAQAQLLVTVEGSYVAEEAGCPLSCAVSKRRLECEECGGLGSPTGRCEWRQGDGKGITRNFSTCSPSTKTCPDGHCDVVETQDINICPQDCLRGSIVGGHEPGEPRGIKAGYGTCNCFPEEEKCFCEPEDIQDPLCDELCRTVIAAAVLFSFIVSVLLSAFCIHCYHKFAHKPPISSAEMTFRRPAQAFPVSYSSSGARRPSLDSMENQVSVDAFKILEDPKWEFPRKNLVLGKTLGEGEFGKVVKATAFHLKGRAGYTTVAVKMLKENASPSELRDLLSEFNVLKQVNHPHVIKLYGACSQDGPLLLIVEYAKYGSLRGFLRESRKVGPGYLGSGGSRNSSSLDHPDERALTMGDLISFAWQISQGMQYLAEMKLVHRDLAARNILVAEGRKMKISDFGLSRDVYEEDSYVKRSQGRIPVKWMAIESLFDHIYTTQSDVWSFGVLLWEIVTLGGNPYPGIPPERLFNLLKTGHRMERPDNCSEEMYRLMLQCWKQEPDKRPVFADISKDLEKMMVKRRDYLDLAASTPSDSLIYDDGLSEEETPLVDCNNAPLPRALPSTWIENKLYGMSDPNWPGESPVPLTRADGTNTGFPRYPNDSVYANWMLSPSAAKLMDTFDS

[16] = biological target: T1, Platelet-derived growth factor receptor beta; test: Inhibition of recombinant human His-tagged PDGFRB cytoplasmic domain (558 to 1106 residues) expressed in baculovirus expression system by Z-lyte assay
[17] = biological target: T2, Proto-oncogene tyrosine-protein kinase receptor Ret; test: Inhibition of recombinant human RET cytoplasmic domain (658 to 1114 residues) expressed in baculovirus expression system by Z-lyte assay
[18] = biological target: Platelet-derived growth factor receptor beta (Mus musculus) (UniProt P05622); test: Inhibition of PDGFRB in mouse BAF3(transformed) cells assessed as growth inhibition after 72 hrs by CCK8 assay
[19] = biological target: T3, Mast/stem cell growth factor receptor Kit (Homo sapiens, UniProt P10721, 560-578DEL); type: cell-based, GISTT1
T3 sequence (P10721 whole entry, looked up, stated change not applied): as the sequence (P10721 whole entry, looked up, stated change not applied) above

[20] = biological target: T3, Mast/stem cell growth factor receptor Kit; type: cell-based, GISTT1; remark: listed apart in the source
[21] = biological target: T3, Mast/stem cell growth factor receptor Kit; type: cell-based, GISTT1; remark: listed apart in the source
[22] = biological target: T4, Mast/stem cell growth factor receptor Kit (Homo sapiens, UniProt P10721, 560-578DEL/T670I); type: cell-based, GISTT1
T4 sequence (P10721 whole entry, looked up, stated change not applied): as above

[23] = biological target: T4, Mast/stem cell growth factor receptor Kit; type: cell-based
[24] = biological target: T3, Mast/stem cell growth factor receptor Kit; type: cell-based, GISTT1; remark: listed apart in the source
[25] = biological target: T3, Mast/stem cell growth factor receptor Kit; type: cell-based, GISTT1; remark: listed apart in the source
[26] = biological target: T4, Mast/stem cell growth factor receptor Kit; type: cell-based, GISTT1; remark: listed apart in the source
[27] = biological target: T4, Mast/stem cell growth factor receptor Kit; type: cell-based, GISTT1; remark: listed apart in the source
[28] = biological target: T4, Mast/stem cell growth factor receptor Kit
[29] = biological target: T4, Mast/stem cell growth factor receptor Kit; remark: listed apart in the source
[30] = biological target: T4, Mast/stem cell growth factor receptor Kit; remark: listed apart in the source
[31] = biological target: T4, Mast/stem cell growth factor receptor Kit; remark: listed apart in the source
GISTT1 [32] = type: functional, cell-based; settings: Homo sapiens
Homo sapiens [33] = species on record: Homo sapiens; type: functional, cell-based
[34] = AUC (0 to t) in Sprague-Dawley rat at 1 mg/kg, iv by LC-MS/MS analysis; type: ADME, organism-based; settings: in vivo
[35] = Half life in Sprague-Dawley rat at 1 mg/kg, iv by LC-MS/MS analysis; type: ADME, organism-based; settings: in vivo
[36] = Cmax in Sprague-Dawley rat at 1 mg/kg, iv by LC-MS/MS analysis; type: ADME, organism-based; design: dose 1 mg/kg, route intravenous; settings: in vivo
[37] = AUC (0 to t) in Sprague-Dawley rat at 10 mg/kg, po by LC-MS/MS analysis; type: ADME, organism-based; settings: in vivo
[38] = AUC (0 to t) in mouse at 1 mg/kg, iv by LC-MS/MS analysis; type: ADME, organism-based; settings: in vivo
[39] = Half life in mouse at 1 mg/kg, iv by LC-MS/MS analysis; type: ADME, organism-based; settings: in vivo
[40] = Cmax in mouse at 1 mg/kg, iv by LC-MS/MS analysis; type: ADME, organism-based; design: dose 1 mg/kg, route intravenous; settings: in vivo
[41] = AUC (0 to t) in mouse at 10 mg/kg, po by LC-MS/MS analysis; type: ADME, organism-based; settings: in vivo
[42] = Oral bioavailability in mouse at 10 mg/kg by LC-MS/MS analysis; type: ADME, organism-based; settings: in vivo
[43] = Half life in Beagle dog at 1 mg/kg, iv by LC-MS/MS analysis; type: ADME, organism-based, Canis lupus familiaris; settings: in vivo
[44] = Cmax in Beagle dog at 5 mg/kg, po by LC-MS/MS analysis; type: ADME, organism-based, Canis lupus familiaris; design: dose 5 mg/kg, route oral; settings: in vivo
Mus musculus [45] = type: functional, organism-based; settings: BALB/c, 80 mg/kg, TDE = time-dependent effect
Mus musculus [46] = type: functional, organism-based; settings: BALB/c, 80 mg/kg, TDE = time-dependent effect; remark: listed apart in the source
Mus musculus [47] = type: functional, organism-based; settings: BALB/c, 80 mg/kg, TDE = time-dependent effect; remark: listed apart in the source
Mus musculus [48] = type: functional, organism-based; settings: BALB/c, 80 mg/kg, TDE = time-dependent effect; remark: listed apart in the source
Mus musculus [49] = type: functional, organism-based; settings: BALB/c, 80 mg/kg
Mus musculus [50] = type: functional, organism-based; settings: BALB/c, 80 mg/kg; remark: listed apart in the source
Mus musculus [51] = type: functional, organism-based; settings: BALB/c, 80 mg/kg; remark: listed apart in the source
GISTT1 [52] = type: functional, Homo sapiens
GISTT1 [53] = type: functional, Homo sapiens; remark: listed apart in the source
Homo sapiens [54] = type: functional; settings: 20 mg/kg
Homo sapiens [55] = type: functional; settings: 40 mg/kg
Homo sapiens [56] = type: functional, cell-based; remark: listed apart in the source
[57] = tested on: Mast/stem cell growth factor receptor Kit (Homo sapiens), P10721 [V654A]; settings: Mus musculus
Sequence of Mast/stem cell growth factor receptor Kit (Homo sapiens), P10721 [V654A] (P10721 whole entry V654A): as the sequence (P10721 whole entry, looked up, stated change not applied) above, with V654A counted along it
Description: Inhibition of c-KIT V654A mutant in mouse BAF3(transformed) cells assessed as growth inhibition after 72 hrs by CCK8 assay

[58] = tested on: Mast/stem cell growth factor receptor Kit (Homo sapiens), P10721 [N822K]; settings: Mus musculus
Sequence of Mast/stem cell growth factor receptor Kit (Homo sapiens), P10721 [N822K] (P10721 whole entry N822K): as the sequence (P10721 whole entry, looked up, stated change not applied) above, with N822K counted along it
Description: Inhibition of c-KIT N822K mutant in mouse BAF3(transformed) cells assessed as growth inhibition after 72 hrs by CCK8 assay

[59] = tested on: Mast/stem cell growth factor receptor Kit (Homo sapiens), P10721 [UNDEFINED MUTATION]; settings: GISTT1
Description: Inhibition of c-KIT 560 to 578 deletion/T670I mutant in human GISTT1 cells assessed as growth inhibition after 72 hrs by CCK8 assay

Sequence of RAC-alpha serine/threonine-protein kinase (Homo sapiens) (P31749 whole entry): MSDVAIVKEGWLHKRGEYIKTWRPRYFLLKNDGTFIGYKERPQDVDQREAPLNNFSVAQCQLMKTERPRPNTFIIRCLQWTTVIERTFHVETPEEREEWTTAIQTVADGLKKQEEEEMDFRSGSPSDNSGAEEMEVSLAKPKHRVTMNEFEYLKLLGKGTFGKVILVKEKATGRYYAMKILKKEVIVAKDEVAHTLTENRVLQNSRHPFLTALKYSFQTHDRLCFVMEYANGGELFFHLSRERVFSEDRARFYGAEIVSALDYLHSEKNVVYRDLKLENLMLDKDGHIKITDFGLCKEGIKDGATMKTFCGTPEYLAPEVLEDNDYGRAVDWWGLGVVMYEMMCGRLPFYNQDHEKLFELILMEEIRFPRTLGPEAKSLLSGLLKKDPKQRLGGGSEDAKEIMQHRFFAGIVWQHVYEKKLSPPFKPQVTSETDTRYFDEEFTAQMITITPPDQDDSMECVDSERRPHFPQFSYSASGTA

Structure (SMILES): CCN(CC)CCNC(=O)c1c(C)[nH]c(/C=C2\C(=O)Nc3ccc(F)cc32)c1C [SUNITINIB]
- inhibition [1]: Active
- inhibition [2]: inactive
- inhibition [3]: Active
- inhibition [4]: Active
- inhibition [5]: Active
- inhibition [6]: Active
- inhibition [7]: Active
- inhibition [8]: Active
- inhibition [9]: Active
- inhibition [10]: Active

Structure (SMILES): COc1cc2nccc(Oc3ccc(NC(=O)Cc4ccc(Cl)c(C(F)(F)F)c4)cc3)c2cc1OC
- TGI (Mus musculus [11]): Dose-dependent effect
- Activity [12]: < 1%
- Activity [13]: < 1%
- Activity [14]: < 1%
- Activity [15]: < 1%
- IC50 [16]: 0.097 µM
- IC50 [17]: 0.034 µM
- GI50 [18]: 0.004 µM
- EC50 [19]: < 0.1 µM
- EC50 [20]: < 0.1 µM
- EC50 [21]: < 0.1 µM
- EC50 [22]: < 0.1 µM
- EC50 [23]: < 0.1 µM
- EC50 [24]: < 0.1 µM
- EC50 [25]: < 0.1 µM
- EC50 [26]: < 0.1 µM
- EC50 [27]: < 0.1 µM
- EC50 [28]: < 0.1 µM
- EC50 [29]: < 0.1 µM
- EC50 [30]: < 0.1 µM
- EC50 [31]: < 0.1 µM
- Activity (GISTT1 [32]): Dose-dependent effect
- Activity (Homo sapiens [33]): Dose-dependent effect
- AUC(0-t) [34]: 2550 ng·h/mL
- half-life [35]: 15.8 h
- Cmax [36]: 660 ng/mL
- AUC(0-t) [37]: 25100 ng·h/mL
- AUC(0-t) [38]: 2990 ng·h/mL
- half-life [39]: 5.4 h
- Cmax [40]: 520 ng/mL
- AUC(0-t) [41]: 12600 ng·h/mL
- bioavailability [42]: 43%
- half-life [43]: 20.6 h
- Cmax [44]: 1160 ng/mL
- inhibition (Mus musculus [45]): Tde
- inhibition (Mus musculus [46]): Tde
- inhibition (Mus musculus [47]): Tde
- inhibition (Mus musculus [48]): Tde
- inhibition (Mus musculus [49]): inactive
- inhibition (Mus musculus [50]): inactive
- inhibition (Mus musculus [51]): inactive
- Activity (GISTT1 [52]): 0.2 g
- Activity (GISTT1 [53]): 0.27 g
- TGI (Homo sapiens [54]): Dose-dependent effect
- TGI (Homo sapiens [55]): Dose-dependent effect
- TGI (Homo sapiens [56]): Dose-dependent effect
- GI50 [57]: 0.32 µM
- GI50 [58]: 0.026 µM
- GI50 [59]: 0.006 µM
